Peptide text beside a SMILES is read from it. * marks the point of attachment. βNA = c1ccc2cc(N*)ccc2c1

The test system of one assay is CHO cells. As to the kind of experiment: Toxicity on CHO cultured cells. The assay is classed as cell-based. Conditions: killing of 50% of the CHO cells after 24 hours of incubation. As for the experimental part: The toxicity of each compound was determined on CHO cultured cells. Incubation of CHO cells was performed with serial dilution of compounds. The compounds are either solubilized in DMSO or in PBS. The IC50 corresponds to the concentration of compounds leading to a killing of 50% of the CHO cells after 24 hours of incubation.

In assay [1] the test system is Enterobacter aerogenes MDR Ea289. As to the kind of experiment: MIC of antibiotics ± test compound (MIC ratio), micro-broth dilution. The format is cell-based. Conditions: chloramphenicol. As for the experimental part:
The process consists of treating the MDR bacteria with the compounds of the invention in the presence of antibiotics.
Susceptibilities to antibiotics and compounds were determined in microplates by broth dilution method, as previously described. Minimal Inhibitory Concentrations (MICs) were determined with an inoculum of 10^6 CFU in 200 μL of MH broth containing two-fold serial dilutions of each drug. […] All MIC determinations were repeated at least three times in independent experiments.
The MICs of chloramphenicol±test compounds (MIC/4) were determined by the micro-broth dilution method (9). All MIC determinations were repeated at least three times in independent experiments. The MIC ratio corresponds to the ratio of the MIC of an antibiotic alone to the MIC of the same antibiotic in the presence of the tested compound (at MIC/4).
The compounds listed in Table 2 were tested for their ability to decrease the chloramphenicol MIC of Ea289, an Enterobacter aerogenes MDR strain (1). Each compound was first tested at MIC/4. […] All MIC determinations were repeated at least three times in independent experiments.
For reminder, the MIC ratio corresponds to the ratio of the MIC of the assessed antibiotic alone to the MIC of the same antibiotic in the presence of the tested compound (at MIC/4).
A general note: Dilution methods test growth across graded concentrations, often in twofold steps.

For another assay, the system named is A. Baumannii ATCC19606. As to the kind of experiment: Susceptibility of Gram-negative strains to macrolides in the presence of test compound. The assay is classed as cell-based, Acinetobacter baumannii. Further details: Susceptibility to Clarithomycin, A. Baumannii ATCC19606: key to the marks not given beside the values.
A further assay deals with E. Coli AG100. The description is as above. The format is cell-based, Escherichia coli. Further details: Susceptibility to Clarithomycin, E. Coli AG100 / Susceptibility to Erythromycin, E. Coli AG100: key to the marks not given beside the values.
A further assay deals with E. aerogenes ATCC13048. Described as above. The assay is classed as cell-based, Enterobacter aerogenes.
Assay [2] deals with S. enterica Thyphimurium ATCC13311. Described as above. The format is cell-based, Salmonella enterica Typhimurium. Further details: key to the marks not given beside the values.

The IC50 is the concentration that inhibits the measured activity by half. `N=C(N)NCCC[C@H](NC(=O)[C@@H](N)Cc1ccccc1)C(=O)Nc1ccc2ccccc2c1` [PAβN, Phenyl-Arginine β-Naphtylamide] (H-Phe-Arg-βNA) had an IC50 in the assay with CHO cells greater than 5 mM. In addition, the “Effective concentration (mM) for a MIC ratio of chloramphenicol ≥ 8 on Ea289” value in assay [1] is listed as 0.038 mM. For the same compound, in the assay with A. Baumannii ATCC19606, the “Susceptibility to Clarithomycin, A. Baumannii ATCC19606” value was “++”; the “Susceptibility to Erythromycin, A. Baumannii ATCC19606” value was “+”; the “Susceptibility to Spiramycin, A. Baumannii ATCC19606” value is “+”. Besides, in the assay on E. Coli AG100, the “Susceptibility to Clarithomycin, E. Coli AG100” value is given as “++”; the “Susceptibility to Erythromycin, E. Coli AG100” value is listed as “++”; the “Susceptibility to Spiramycin, E. Coli AG100” value was “+”. Moreover, in the assay on E. aerogenes ATCC13048, the “Susceptibility to Clarithomycin, E. aerogenes ATCC13048” value was “+”; the “Susceptibility to Erythromycin, E. aerogenes ATCC13048” value is “+”; the “Susceptibility to Spiramycin, E. aerogenes ATCC13048” value is “+”. Moreover, in assay [2], the “Susceptibility to Clarithomycin, S. enterica Thyphimurium ATCC13311” value is listed as “++”; the “Susceptibility to Erythromycin, S. enterica Thyphimurium ATCC13311” value was “++”; the “Susceptibility to Spiramycin, S. enterica Thyphimurium ATCC13311” value is recorded as “++”.

(Values after patent publication US10562842B2, “Use of polyaminoisoprenyl derivatives in antibiotic or antiseptic treatment” (UNIVERSITE D'AIX-MARSEILLE, priority 2011, dated 2020).)
